Data on 26 compounds can be found in patent US11279681B2, “3-alkyl bicyclic [4,5,0] hydroxamic acids as HDAC inhibitors” (Valo Health, Inc., priority 2015, dated 2022).

Bounds are passed on as bounds.

This assay concerns the target T1, HDAC6 (Homo sapiens, UniProt Q9UBN7).
T1 sequence (Q9UBN7 1-1215): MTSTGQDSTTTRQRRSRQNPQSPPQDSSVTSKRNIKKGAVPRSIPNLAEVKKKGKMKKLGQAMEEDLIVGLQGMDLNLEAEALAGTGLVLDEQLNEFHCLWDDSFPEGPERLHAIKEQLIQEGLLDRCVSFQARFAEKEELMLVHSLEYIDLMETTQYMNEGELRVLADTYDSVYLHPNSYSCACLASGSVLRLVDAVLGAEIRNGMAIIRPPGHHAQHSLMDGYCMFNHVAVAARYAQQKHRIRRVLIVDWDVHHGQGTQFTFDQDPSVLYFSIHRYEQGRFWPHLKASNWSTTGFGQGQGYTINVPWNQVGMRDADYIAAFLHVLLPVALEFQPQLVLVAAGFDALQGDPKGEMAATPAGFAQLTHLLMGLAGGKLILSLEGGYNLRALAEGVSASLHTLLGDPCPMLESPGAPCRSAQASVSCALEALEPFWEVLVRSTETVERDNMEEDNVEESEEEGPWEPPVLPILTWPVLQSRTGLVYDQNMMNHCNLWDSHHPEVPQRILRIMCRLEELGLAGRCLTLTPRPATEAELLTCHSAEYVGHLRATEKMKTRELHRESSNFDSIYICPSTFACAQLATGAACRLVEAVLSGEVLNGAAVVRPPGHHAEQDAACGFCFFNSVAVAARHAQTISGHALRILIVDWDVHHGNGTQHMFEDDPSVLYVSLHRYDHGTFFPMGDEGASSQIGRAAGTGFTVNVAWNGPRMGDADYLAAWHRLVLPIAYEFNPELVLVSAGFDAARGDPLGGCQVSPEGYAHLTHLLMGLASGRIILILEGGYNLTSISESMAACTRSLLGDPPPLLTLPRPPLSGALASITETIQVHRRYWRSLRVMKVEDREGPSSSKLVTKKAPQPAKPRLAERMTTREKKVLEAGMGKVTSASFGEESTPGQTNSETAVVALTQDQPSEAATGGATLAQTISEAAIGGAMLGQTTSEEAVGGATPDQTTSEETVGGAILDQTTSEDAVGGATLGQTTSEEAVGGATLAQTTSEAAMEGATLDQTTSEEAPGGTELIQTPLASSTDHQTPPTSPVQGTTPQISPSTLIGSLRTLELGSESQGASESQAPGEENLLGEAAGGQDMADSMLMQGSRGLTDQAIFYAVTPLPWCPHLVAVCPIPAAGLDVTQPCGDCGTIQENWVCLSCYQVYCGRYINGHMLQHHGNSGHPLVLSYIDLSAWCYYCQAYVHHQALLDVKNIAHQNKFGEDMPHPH
Kind of assay: In vitro histone deacetylase assay: enzymatic HDAC6 electrophoretic mobility shift assay. It counts as biochemical. The note with it: full length human recombinant HDAC6, 1 nM enzyme, 2 μM peptide substrate RHKK(Ac)-NH2, 25° C.; read-out: Inhibitory Concentration (IC50) Values for Representative Compounds against HDAC6, Activity Range. A general note: In EMSA bound probe runs differently from free probe, usually more slowly.

As for `C[C@H]1COc2cc(C(=O)NO)ccc2CN1C(=O)N1C[C@@H]2CC[C@@H](C1)O2` [(S)-4-((1S,5S)-8-oxa-3-azabicyclo[3.2.1]octane-3-carbonyl)-N-hydroxy-3-methyl-2,3,4,5-tetrahydrobenzo[f][1,4]oxazepine-8-carboxamide], the IC50 is at most 100 nM.

In the case of `COc1ccc(CN2CCOc3cc(C(=O)NO)ccc3C2=O)cc1`, the IC50 lay within 100 to 500 nM.

Consider `C[C@H]1COc2cc(C(=O)NO)ccc2CN1c1ccccc1Cl` [(S)-4-(2-chlorophenyl)-N-hydroxy-3-methyl-2,3,4,5-tetrahydrobenzo[f][1,4]oxazepine-8-carboxamide], for which the IC50 is at most 100 nM.

`O=C(NO)c1ccc2c(c1)CN(c1nc3ccccc3[nH]1)CCO2`: the IC50 lay in the range of 100 to 500 nM.

`COc1ccc(S(=O)(=O)N2CCOc3nc(C(=O)NO)ccc3C2)cc1`: the IC50 was over 500 nM.

Take `C[C@H]1COc2cc(C(=O)NO)ccc2CN1c1ccc(Cl)cc1` [(S)-4-(4-chlorophenyl)-N-hydroxy-3-methyl-2,3,4,5-tetrahydrobenzo[f][1,4]oxazepine-8-carboxamide]: the IC50 was at most 100 nM.

Take `C[C@H]1COc2cc(C(=O)NO)ccc2CN1C(=O)NC1CCCCC1` [(S)-N4-cyclohexyl-N8-hydroxy-3-methyl-2,3-dihydrobenzo[f][1,4]oxazepine-4,8(5H)-dicarboxamide]: the IC50 is at most 100 nM.

For `O=C1CN(Cc2coc(-c3cccc(F)c3)n2)Cc2cc(C(=O)NO)ccc2N1`, the IC50 is at most 100 nM.

For the compound `CC1(C)COc2cc(C(=O)NO)ccc2CN1` [N-hydroxy-3,3-dimethyl-2,3,4,5-tetrahydrobenzo[f][1,4]oxazepine-8-carboxamide], the IC50 is at most 100 nM.

For `COc1ccc(S(=O)(=O)N2CCOc3cc(C(=O)NO)ccc3C2)cc1`, the IC50 was 100 to 500 nM.

With `COc1ccc(NC(=O)N2Cc3ccc(C(=O)NO)cc3OC[C@@H]2C)cc1`, the IC50 was at most 100 nM.

On to `O=C1CN(Cc2ccccc2)Cc2cc(C(=O)NO)ccc2N1` [4-benzyl-N-hydroxy-2-oxo-2,3,4,5-tetrahydro-1H-benzo[e][1,4]diazepine-7-carboxamide], for which the IC50 is 100 to 500 nM.

As for `O=C(NO)c1ccc2c(c1)OCCN(c1nc3ccccc3n1CC1CCCCC1)C2`, the IC50 is 100 to 500 nM.

Turning to `O=C1CN(Cc2ccccn2)Cc2cc(C(=O)NO)ccc2N1`, the IC50 was over 500 nM.

Turning to `C[C@H]1COc2cc(C(=O)NO)ccc2CN1CC1CCCO1` (stereo partly drawn) [(3S)-N-hydroxy-3-methyl-4-((tetrahydrofuran-2-yl)methyl)-2,3,4,5-tetrahydrobenzo[f][1,4]oxazepine-8-carboxamide], the IC50 was at most 100 nM.

`COC1CCN(C(=O)N2Cc3ccc(C(=O)NO)cc3OC[C@@H]2C)CC1` [(S)-N-hydroxy-4-(4-methoxypiperidine-1-carbonyl)-3-methyl-2,3,4,5-tetrahydrobenzo[f][1,4]oxazepine-8-carboxamide]: the IC50 was at most 100 nM.

For the compound `C[C@H]1COc2cc(C(=O)NO)ccc2CN1C(=O)OC1CCCC1` [cyclopentyl(S)-8-(hydroxycarbamoyl)-3-methyl-2,3-dihydrobenzo[f][1,4]oxazepine-4(5H)-carboxylate], the IC50 was at most 100 nM.

Take `CN1Cc2ccc(C(=O)NO)cc2OCC12CC2` [N-hydroxy-4-methyl-4,5-dihydro-2H-spiro[benzo[f][1,4]oxazepine-3,1′-cyclopropane]-8-carboxamide]: the IC50 was at most 100 nM.

With `C[C@H]1COc2cc(C(=O)NO)ccc2CN1CCC1CCCO1` (stereo partly drawn) [(3S)-N-hydroxy-3-methyl-4-(2-(tetrahydrofuran-2-yl)ethyl)-2,3,4,5-tetrahydrobenzo[f][1,4]oxazepine-8-carboxamide], the IC50 was at most 100 nM.

As to `C[C@H]1COc2cc(C(=O)NO)ccc2CN1C(=O)N1CCOc2ccccc21` [(S)-4-(3,4-dihydro-2H-benzo[b][1,4]oxazine-4-carbonyl)-N-hydroxy-3-methyl-2,3,4,5-tetrahydrobenzo[f][1,4]oxazepine-8-carboxamide], the IC50 is at most 100 nM.

`O=C1CN(Cc2nccs2)Cc2cc(C(=O)NO)ccc2N1`: the IC50 is over 500 nM.

Regarding `O=C(NO)c1ccc2c(c1)OCCN(C(=O)OC1CCCCC1)C2`, the IC50 is at most 100 nM.

`O=C1CN(Cc2ccnc(N3CCOCC3)c2)Cc2cc(C(=O)NO)ccc2N1`: the IC50 is 100 to 500 nM.

Consider `CC(C)[C@H]1COc2cc(C(=O)NO)ccc2CN1`, for which the IC50 is at most 100 nM.

With `COc1ccc(NC(=O)N2CCOc3ccc(C(=O)NO)cc3C2)cc1`, the IC50 was over 500 nM.

As to `C[C@H]1COc2cc(C(=O)NO)ccc2CN1C(=O)N1CCCC1` [(S)-N-hydroxy-3-methyl-4-(pyrrolidine-1-carbonyl)-2,3,4,5-tetrahydrobenzo[f][1,4]oxazepine-8-carboxamide], the IC50 was at most 100 nM.
